# In patent publication US9751857B2, “Hepatitis B antiviral agents” (NOVIRA THERAPEUTICS, INC., priority 2011, dated 2017):
# Columns and labels:
# [1] = test system: HBV replication in HepG2-2.2.15 cells; test: Dot-blot assay of HBV replication; assay type: cell-based; conditions: Hepatitis B virus, 144 h
# Method: Compounds active in the HBV assembly assay are tested for their activity and toxicity in cellular assay. In the first anti-viral assay, the ability of compounds to inhibit HBV replication in an HBV-producing hepatoma cell line using the dot-blot method is evaluated.
# Briefly, confluent monolayers of HepG2-2.2.15 cells are incubated with complete medium containing various concentrations of a test compound. Three days later, the culture medium is replaced with fresh medium containing the appropriately diluted test compound. Six days following the initial administration of the test compound, the cell culture supernatant is collected, and cell lysis is performed. The samples are applied onto Nylos membranes and DNA is immobilized to the membrane by UV cross-linking. After pre-hybridization, the HBV probe is added and the hybridization is performed overnight. The membranes are exposed to the Kodak films; antiviral activity is calculated from the reduction in HBV DNA levels (EC50). The EC50 for antiviral activity is calculated from the dose response curves of active compounds.
# In the first anti-viral assay, the ability of compounds to inhibit HBV replication in an HBV-producing hepatoma cell line using the dot-blot method was evaluated.
# Confluent monolayers of HepG2-2.2.15 cells were incubated with complete medium containing various concentrations of a test compound. Three days later, the culture medium was replaced with fresh medium containing the appropriately diluted test compound. Six days following the initial administration of the test compound, the cell culture supernatant was collected, and cell lysis was performed. The samples were applied onto Nylos membranes and DNA was immobilized to the membrane by UV cross-linking. After pre-hybridization, the HBV probe was added and the hybridization was performed overnight. The membranes were exposed to the Kodak films; antiviral activity was calculated from the reduction in HBV DNA levels (EC50). The EC50 for antiviral activity was calculated from the dose response curves of active compounds. […]
# [2] = molecular target: HBV C150Bo capsid protein (HBV CA protein) (Hepatitis B virus genotype D subtype adw, UniProt P03147, C107A/C48A/C61A/R150C); test: HBV assembly assay (fluorescence quenching in vitro assembly); assay type: biochemical; conditions: for Activity in HBV assembly assay: at 10 μM
# Sequence of HBV C150Bo capsid protein (HBV CA protein) (P03147 1-150 C48A/C61A/C107A/R150C): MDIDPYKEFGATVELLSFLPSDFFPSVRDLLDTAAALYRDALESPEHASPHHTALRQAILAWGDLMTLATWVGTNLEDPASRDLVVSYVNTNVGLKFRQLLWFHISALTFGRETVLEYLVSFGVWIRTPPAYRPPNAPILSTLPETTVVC
Compound,inhibition at 10 µM [1] [%],Activity in HBV assembly assay [2],EC50 in HBV assembly assay ([2]; control compounds)
O=C(Nc1ccc(F)c(Cl)c1)c1cccc(S(=O)(=O)N2CCC(CO)C(O)C2)c1 (stereo not drawn) [725D1],> 50,+ (‘+’ indicates >50% activity at 10 μM),
O=C(Nc1cc(F)c(F)c(Cl)c1)c1ccc(F)c(S(=O)(=O)N2CCC(O)C(F)C2)c1 (stereo not drawn) [1135D1],> 50,+ (‘+’ indicates >50% activity at 10 μM),
O=C(Nc1ccc(F)c(Br)c1)c1cccc(S(=O)(=O)N2CC(O)C2)c1 [compound 407],> 50,+ (‘+’ indicates >50% activity at 10 μM),
O=C(Nc1ccc(F)c(Cl)c1)c1cccc(S(=O)(=O)N2CCC(O)C(CO)C2)c1 (stereo not drawn) [719D1],> 50,+ (‘+’ indicates >50% activity at 10 μM),
O=C(Nc1cc(F)c(F)c(F)c1)c1cccc(S(=O)(=O)N2CCC(CO)CC2)c1 [compound 258],> 50,+ (‘+’ indicates >50% activity at 10 μM),
O=C(Nc1ccc(F)c(Cl)c1)c1cccc(S(=O)(=O)NC2CCC(O)C2)c1 (stereo not drawn) [compound 1157],> 50,+ (‘+’ indicates >50% activity at 10 μM),
O=C(Nc1cc(F)c(F)c(F)c1)c1cccc(S(=O)(=O)N2CCC(O)CC2)c1 [compound 318],> 50,+ (‘+’ indicates >50% activity at 10 μM),
COC(=O)c1ccc(C(=O)Nc2cc(F)c(F)c(F)c2)cc1S(=O)(=O)N1CCC(O)CC1 [compound 927],> 50,+ (‘+’ indicates >50% activity at 10 μM),
O=C(Nc1ccc(F)c(C(F)F)c1)c1cccc(S(=O)(=O)N2CCC(O)C(F)C2)c1 (stereo not drawn) [820D2],> 50,+ (‘+’ indicates >50% activity at 10 μM),
O=C(Nc1cc(F)c(F)c(F)c1)c1cc(S(=O)(=O)NC2CCCCC2O)ccc1Cl (stereo not drawn) [compound 1129],> 50,+ (‘+’ indicates >50% activity at 10 μM),
"COC(=O)C1=C(C)NC(c2ccccn2)=NC1c1ccc(F)cc1Cl (stereo not drawn) [HAP-1, reference compound]",,,consistent with the literature
Cc1ccc(S(=O)(=O)N2CCC(O)CC2)cc1C(=O)Nc1cc(F)c(F)c(F)c1 [compound 928],> 50,+ (‘+’ indicates >50% activity at 10 μM),
O=C(Nc1ccc(F)c(Cl)c1)c1ccc(Cl)c(S(=O)(=O)N2CCCC2CO)c1 (stereo not drawn) [1094S],> 50,+ (‘+’ indicates >50% activity at 10 μM),
O=C(Nc1ccc(F)c(Cl)c1)c1cc(S(=O)(=O)NC2CC(O)C2)ccc1Cl (stereo not drawn) [1134CT2],> 50,+ (‘+’ indicates >50% activity at 10 μM),
O=C(Nc1ccc(F)c(Br)c1)c1cccc(S(=O)(=O)N2CCC(O)(CO)CC2)c1 [compound 758],> 50,+ (‘+’ indicates >50% activity at 10 μM),
O=C(Nc1cc(F)c(F)c(F)c1)c1cc(S(=O)(=O)NC2CC(O)C2)c(F)cc1Cl (stereo not drawn) [1374CT1],> 50,+ (‘+’ indicates >50% activity at 10 μM),
O=C(Nc1ccc(F)c(Cl)c1)c1cccc(S(=O)(=O)N2CCC(CO)(Cc3ccccc3)CC2)c1 [compound 553],> 50,+ (‘+’ indicates >50% activity at 10 μM),
O=C(Nc1ccc(F)c(Cl)c1)c1cc(S(=O)(=O)NC2CCCC2O)ccc1Cl (stereo not drawn) [compound 1114],> 50,+ (‘+’ indicates >50% activity at 10 μM),
CC1(O)CCN(S(=O)(=O)c2cc(C(=O)Nc3cc(F)c(F)c(F)c3)ccc2F)CC1 [compound 1161],> 50,+ (‘+’ indicates >50% activity at 10 μM),
O=C(Nc1ccc(F)c(C(F)F)c1)c1cccc(S(=O)(=O)N2CCCC2CO)c1 (stereo not drawn) [677R],> 50,+ (‘+’ indicates >50% activity at 10 μM),
CCCC(=O)N1CCN(S(=O)(=O)c2cccc(C(=O)Nc3cccc(Br)c3)c2)CC1 [compound 121],> 50,+ (‘+’ indicates >50% activity at 10 μM),
O=C(Nc1cc(F)c(F)c(F)c1)c1cccc(S(=O)(=O)N2CCC(O)(c3ccc(F)cc3)CC2)c1 [compound 765],> 50,+ (‘+’ indicates >50% activity at 10 μM),

Compound,inhibition at 10 µM [1] [%],Activity in HBV assembly assay [2],EC50 in HBV assembly assay ([2]; control compounds)
O=C(Nc1cc(F)c(F)c(F)c1)c1cc(S(=O)(=O)NC2CC(O)C2)c(F)cc1Cl (stereo not drawn) [1374CT2],,+ (‘+’ indicates >50% activity at 10 μM),
O=C(Nc1cccc(Br)c1)c1cccc(S(=O)(=O)N2CC(O)C2)c1 [compound 078],> 50,+ (‘+’ indicates >50% activity at 10 μM),
O=C(Nc1ccc(F)c(F)c1)c1cc(S(=O)(=O)NC2CC(O)C2)c(F)cc1Cl (stereo not drawn) [1378CT2],> 50,+ (‘+’ indicates >50% activity at 10 μM),
O=C(Nc1cc(F)c(F)c(F)c1)c1ccc(F)c(S(=O)(=O)N2CCC(O)(CO)CC2)c1 [compound 916],> 50,+ (‘+’ indicates >50% activity at 10 μM),
CC(=O)N1CCN(S(=O)(=O)c2cccc(C(=O)Nc3cccc(Br)c3)c2)CC1 [compound 119],> 50,+ (‘+’ indicates >50% activity at 10 μM),
O=C(Nc1cc(F)c(F)c(F)c1)c1ccc(F)c(S(=O)(=O)N2CCC(O)CC2)c1 [compound 890],> 50,+ (‘+’ indicates >50% activity at 10 μM),
O=C(Nc1cc(F)c(F)c(F)c1)c1ccc(F)c(S(=O)(=O)C2CCC(CO)C(O)C2)c1 (stereo not drawn) [946D2],> 50,+ (‘+’ indicates >50% activity at 10 μM),
O=C(Nc1cc(F)c(F)c(F)c1)c1ccc(Cl)c(S(=O)(=O)N2CCC(O)(CO)CC2)c1 [compound 1130],> 50,+ (‘+’ indicates >50% activity at 10 μM),
O=C(Nc1cc(F)c(F)c(F)c1)c1cc(S(=O)(=O)N2CC(O)C2)c(F)cc1Cl [compound 1339],> 50,+ (‘+’ indicates >50% activity at 10 μM),
O=C(Nc1cc(F)c(F)c(F)c1)c1cc(S(=O)(=O)N2CCC(O)(CO)CC2)c(F)cc1Cl [compound 1379],> 50,+ (‘+’ indicates >50% activity at 10 μM),
O=C(Nc1ccc(F)c(Cl)c1)c1ccc(F)c(S(=O)(=O)N2CCC(CO)C(O)C2)c1 (stereo not drawn) [955D2],,+ (‘+’ indicates >50% activity at 10 μM),
O=C(Nc1ccc(F)c(Cl)c1)c1cccc(S(=O)(=O)N2CCC(O)(CO)CC2)c1 [compound 501],> 50,+ (‘+’ indicates >50% activity at 10 μM),
O=C(Nc1cc(F)c(F)c(F)c1)c1cc(S(=O)(=O)NC2CCCC2O)ccc1Cl (stereo not drawn) [compound 1113],> 50,+ (‘+’ indicates >50% activity at 10 μM),
O=C(Nc1ccc(F)c(Br)c1)c1ccc(Cl)c(S(=O)(=O)N2CCC(O)(CO)CC2)c1 [compound 1099],> 50,+ (‘+’ indicates >50% activity at 10 μM),
Cc1cc(NC(=O)c2cccc(S(=O)(=O)N3CCC(C)(CO)CC3)c2)ccc1F [compound 478],> 50,+ (‘+’ indicates >50% activity at 10 μM),
O=C(Nc1cc(F)c(F)c(F)c1)c1cc(S(=O)(=O)N2CCC(O)CC2)ccc1Cl [compound 1149],> 50,+ (‘+’ indicates >50% activity at 10 μM),
O=C(Nc1cc(F)c(F)c(F)c1)c1ccc(Cl)c(S(=O)(=O)N2CCC(O)CC2)c1 [compound 1057],> 50,+ (‘+’ indicates >50% activity at 10 μM),
COC1CN(S(=O)(=O)c2cccc(C(=O)Nc3cccc(Cl)c3)c2)C1 [compound 191],> 50,+ (‘+’ indicates >50% activity at 10 μM),
O=C(Nc1ccc(F)c(Cl)c1)c1cccc(S(=O)(=O)N2CCCC2CO)c1 (stereo not drawn) [compound 208],> 50,+ (‘+’ indicates >50% activity at 10 μM),
O=C(Nc1cc(F)c(F)c(CF)c1)c1cccc(S(=O)(=O)N2CC(O)C2)c1 [compound 803],> 50,+ (‘+’ indicates >50% activity at 10 μM),
O=C(Nc1ccc(F)c(Cl)c1)c1ccc(F)c(S(=O)(=O)N2CCC(CO)C(O)C2)c1 (stereo not drawn) [955D1],> 50,+ (‘+’ indicates >50% activity at 10 μM),
"O=C(Nc1cc(F)c(F)c(F)c1)c1ccc(F)c(S(=O)(=O)N2CCC(O)C(F)C2)c1 (single isomer, unassigned) [960D2]",,+ (‘+’ indicates >50% activity at 10 μM),
